Measurements as given in ChEMBL document CHEMBL4138209, “Inhibitory effects and structural insights for a novel series of coumarin-based compounds that selectively target human CA IX and CA XII carbonic anhydrases” (Eur J Med Chem, 2018).

Assays:
Carbonic anhydrase 1 = Carbonic anhydrase 1 (Homo sapiens, UniProt P00915); assay: Inhibition of human carbonic anhydrase 1 incubated for 15 mins prior to testing by stopped-flow CO2 hydration assay
Carbonic anhydrase 2 = Carbonic anhydrase 2 (Homo sapiens, UniProt P00918); assay: Inhibition of human carbonic anhydrase 2 incubated for 15 mins prior to testing by stopped-flow CO2 hydration assay
Carbonic anhydrase 9 = Carbonic anhydrase 9 (Homo sapiens, UniProt Q16790); assay: Inhibition of human carbonic anhydrase 9 incubated for 15 mins prior to testing by stopped-flow CO2 hydration assay
Carbonic anhydrase 12 = Carbonic anhydrase 12 (Homo sapiens, UniProt O43570); assay: Inhibition of human carbonic anhydrase 12 incubated for 15 mins prior to testing by stopped-flow CO2 hydration assay
Sequence of Carbonic anhydrase 12 (O43570 whole entry): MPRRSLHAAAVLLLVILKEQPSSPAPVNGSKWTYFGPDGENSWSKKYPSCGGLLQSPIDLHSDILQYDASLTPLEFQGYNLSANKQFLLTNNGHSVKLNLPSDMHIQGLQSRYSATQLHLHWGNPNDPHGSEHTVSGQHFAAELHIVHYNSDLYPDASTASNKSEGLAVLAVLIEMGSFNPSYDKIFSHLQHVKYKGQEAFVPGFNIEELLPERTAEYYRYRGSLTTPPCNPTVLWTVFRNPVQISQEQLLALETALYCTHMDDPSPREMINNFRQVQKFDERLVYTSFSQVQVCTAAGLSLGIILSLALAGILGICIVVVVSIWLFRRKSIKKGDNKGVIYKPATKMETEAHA

Sequence of Carbonic anhydrase 1 (P00915 whole entry): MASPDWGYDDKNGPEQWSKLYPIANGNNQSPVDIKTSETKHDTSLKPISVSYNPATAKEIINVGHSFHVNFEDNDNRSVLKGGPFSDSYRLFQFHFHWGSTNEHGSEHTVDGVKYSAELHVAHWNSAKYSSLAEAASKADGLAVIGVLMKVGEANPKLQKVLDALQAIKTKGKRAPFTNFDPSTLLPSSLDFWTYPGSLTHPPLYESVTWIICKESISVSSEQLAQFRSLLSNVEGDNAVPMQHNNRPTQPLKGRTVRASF

Cc1c(O)ccc2c(-c3ccccc3)cc(=O)oc12
Ki (Carbonic anhydrase 1): > 10000 nM
Ki (Carbonic anhydrase 2): > 10000 nM
Ki (Carbonic anhydrase 9): 39.5 nM
Ki (Carbonic anhydrase 12): 402 nM

O=c1cc(-c2ccc([N+](=O)[O-])cc2)c2ccc(O)cc2o1
Ki (Carbonic anhydrase 1): > 10000 nM
Ki (Carbonic anhydrase 2): > 10000 nM
Ki (Carbonic anhydrase 9): 20.3 nM
Ki (Carbonic anhydrase 12): 6.5 nM

O=C(Oc1ccc2ccc(=O)oc2c1)c1ccccc1
Ki (Carbonic anhydrase 1): > 10000 nM
Ki (Carbonic anhydrase 2): > 10000 nM
Ki (Carbonic anhydrase 9): 51.4 nM
Ki (Carbonic anhydrase 12): 814 nM

O=c1cc(-c2ccccc2F)c2ccc(O)cc2o1
Ki (Carbonic anhydrase 1): > 10000 nM
Ki (Carbonic anhydrase 2): > 10000 nM
Ki (Carbonic anhydrase 9): 31.8 nM

CC(=O)Oc1ccc2oc(=O)ccc2c1
Ki (Carbonic anhydrase 1): > 10000 nM
Ki (Carbonic anhydrase 2): > 10000 nM
Ki (Carbonic anhydrase 9): 23.1 nM

O=c1cc(-c2ccccc2)c2ccc(O)cc2o1
Ki (Carbonic anhydrase 1): > 10000 nM
Ki (Carbonic anhydrase 2): > 10000 nM
Ki (Carbonic anhydrase 9): 47.2 nM
Ki (Carbonic anhydrase 12): 90.8 nM

CC(=O)Oc1cc2ccc(=O)oc2cc1OC(C)=O
Ki (Carbonic anhydrase 1): > 10000 nM
Ki (Carbonic anhydrase 2): > 10000 nM
Ki (Carbonic anhydrase 9): 116 nM

O=C(Oc1cc2ccc(=O)oc2cc1OC(=O)c1ccccc1)c1ccccc1
Ki (Carbonic anhydrase 1): > 10000 nM
Ki (Carbonic anhydrase 2): > 10000 nM
Ki (Carbonic anhydrase 9): 38.4 nM

O=c1cc(-c2cccc(Cl)c2)c2ccc(O)cc2o1
Ki (Carbonic anhydrase 1): > 10000 nM
Ki (Carbonic anhydrase 2): > 10000 nM
Ki (Carbonic anhydrase 9): 31 nM

Cc1cccc(-c2cc(=O)oc3cc(O)ccc23)c1
Ki (Carbonic anhydrase 1): > 10000 nM
Ki (Carbonic anhydrase 2): > 10000 nM
Ki (Carbonic anhydrase 9): 17 nM

Cc1cccc(-c2cc(=O)oc3c(C)c(O)ccc23)c1
Ki (Carbonic anhydrase 1): > 10000 nM
Ki (Carbonic anhydrase 2): > 10000 nM
Ki (Carbonic anhydrase 9): 37.4 nM

Nc1ccc(-c2cc(=O)oc3cc(O)ccc23)cc1
Ki (Carbonic anhydrase 1): > 10000 nM
Ki (Carbonic anhydrase 2): > 10000 nM
Ki (Carbonic anhydrase 9): 21.6 nM

Cc1c(O)ccc2c(-c3cccc(Cl)c3)cc(=O)oc12
Ki (Carbonic anhydrase 1): > 10000 nM
Ki (Carbonic anhydrase 2): > 10000 nM
Ki (Carbonic anhydrase 9): 36.6 nM

Cc1c(O)ccc2c(-c3ccc([N+](=O)[O-])cc3)cc(=O)oc12
Ki (Carbonic anhydrase 1): > 10000 nM
Ki (Carbonic anhydrase 2): > 10000 nM
Ki (Carbonic anhydrase 9): 30.9 nM

Cc1c(O)ccc2c(-c3ccccc3F)cc(=O)oc12
Ki (Carbonic anhydrase 1): > 10000 nM
Ki (Carbonic anhydrase 2): > 10000 nM
Ki (Carbonic anhydrase 9): 95.9 nM

Cc1ccc(-c2cc(=O)oc3c(C)c(O)ccc23)cc1
Ki (Carbonic anhydrase 1): > 10000 nM
Ki (Carbonic anhydrase 2): > 10000 nM
Ki (Carbonic anhydrase 9): 38.2 nM

O=c1cc(-c2ccc(Cl)cc2)c2ccc(O)cc2o1
Ki (Carbonic anhydrase 1): > 10000 nM
Ki (Carbonic anhydrase 2): > 10000 nM
Ki (Carbonic anhydrase 9): 31.5 nM

O=C(Oc1ccc2oc(=O)ccc2c1)c1ccccc1
Ki (Carbonic anhydrase 1): > 10000 nM
Ki (Carbonic anhydrase 2): > 10000 nM
Ki (Carbonic anhydrase 9): 29.9 nM

Cc1ccc(-c2cc(=O)oc3cc(O)ccc23)cc1
Ki (Carbonic anhydrase 1): > 10000 nM
Ki (Carbonic anhydrase 2): > 10000 nM
Ki (Carbonic anhydrase 9): 35.8 nM

Cc1c(O)ccc2c(-c3ccc(N)cc3)cc(=O)oc12
Ki (Carbonic anhydrase 1): > 10000 nM
Ki (Carbonic anhydrase 2): > 10000 nM

Cc1c(O)ccc2c(-c3ccccc3Cl)cc(=O)oc12
Ki (Carbonic anhydrase 1): > 10000 nM
Ki (Carbonic anhydrase 2): > 10000 nM
Ki (Carbonic anhydrase 9): 27.5 nM

O=c1cc(-c2ccccc2Cl)c2ccc(O)cc2o1
Ki (Carbonic anhydrase 1): > 10000 nM
Ki (Carbonic anhydrase 2): > 10000 nM
Ki (Carbonic anhydrase 9): 30.8 nM

Cc1c(O)ccc2c(-c3ccc(Cl)cc3)cc(=O)oc12
Ki (Carbonic anhydrase 1): > 10000 nM
Ki (Carbonic anhydrase 2): > 10000 nM
Ki (Carbonic anhydrase 9): 35.3 nM

O=c1ccc2cc(O)ccc2o1 [6-HYDROXYCOUMARIN]
Ki (Carbonic anhydrase 1): > 10000 nM
Ki (Carbonic anhydrase 2): > 10000 nM
Ki (Carbonic anhydrase 9): 30.5 nM
Ki (Carbonic anhydrase 12): 33.9 nM

CC(=O)Oc1ccc2ccc(=O)oc2c1 [7-ACETOXYCOUMARIN]
Ki (Carbonic anhydrase 1): > 10000 nM
Ki (Carbonic anhydrase 2): > 10000 nM
Ki (Carbonic anhydrase 9): 40.2 nM
Ki (Carbonic anhydrase 12): 573 nM

O=c1ccc2cc(O)c(O)cc2o1 [ESCULETIN]
Ki (Carbonic anhydrase 1): > 10000 nM
Ki (Carbonic anhydrase 2): > 10000 nM
Ki (Carbonic anhydrase 9): 36.4 nM
Ki (Carbonic anhydrase 12): 9.3 nM
